Earlier results as cited in patent US20100197704A1, “PHARMACEUTICAL COMPOSITIONS AND METHOD FOR TREATING ACUTE MANIA” (priority 2007, published 2010).

Assays:
Conditions in all cases: cited from earlier work
5-HT2C = target: T1, 5-HT2C (Homo sapiens, UniProt P28335)
T1 sequence (P28335 33-458): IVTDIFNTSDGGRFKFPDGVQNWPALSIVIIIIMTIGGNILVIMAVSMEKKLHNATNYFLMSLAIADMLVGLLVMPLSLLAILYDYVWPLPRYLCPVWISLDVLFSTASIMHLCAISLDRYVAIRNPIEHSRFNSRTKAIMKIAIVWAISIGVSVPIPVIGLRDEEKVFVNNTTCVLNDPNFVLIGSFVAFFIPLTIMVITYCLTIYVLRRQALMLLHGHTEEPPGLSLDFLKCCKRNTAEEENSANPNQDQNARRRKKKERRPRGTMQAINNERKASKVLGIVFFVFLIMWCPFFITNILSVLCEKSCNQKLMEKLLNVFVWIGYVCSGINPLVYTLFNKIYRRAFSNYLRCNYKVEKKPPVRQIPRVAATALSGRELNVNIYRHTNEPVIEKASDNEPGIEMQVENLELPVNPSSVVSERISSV

[1] = target: T2, serotonin 5-HT1A receptors (Homo sapiens, UniProt P08908)
T2 sequence (P08908 1-422): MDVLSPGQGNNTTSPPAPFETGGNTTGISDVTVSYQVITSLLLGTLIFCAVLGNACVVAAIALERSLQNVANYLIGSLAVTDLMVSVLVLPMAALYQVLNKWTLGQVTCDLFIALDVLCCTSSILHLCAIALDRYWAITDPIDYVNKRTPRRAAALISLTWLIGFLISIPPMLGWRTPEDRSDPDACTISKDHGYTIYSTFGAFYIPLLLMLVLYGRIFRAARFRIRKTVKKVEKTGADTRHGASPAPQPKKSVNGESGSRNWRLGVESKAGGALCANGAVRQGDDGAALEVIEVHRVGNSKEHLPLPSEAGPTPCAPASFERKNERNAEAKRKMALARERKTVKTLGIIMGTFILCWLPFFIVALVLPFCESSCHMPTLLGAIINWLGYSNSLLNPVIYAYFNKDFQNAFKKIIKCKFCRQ

histamine H1 = histamine H1 (Homo sapiens, UniProt P35367)
Chain of histamine H1 (P35367 whole entry): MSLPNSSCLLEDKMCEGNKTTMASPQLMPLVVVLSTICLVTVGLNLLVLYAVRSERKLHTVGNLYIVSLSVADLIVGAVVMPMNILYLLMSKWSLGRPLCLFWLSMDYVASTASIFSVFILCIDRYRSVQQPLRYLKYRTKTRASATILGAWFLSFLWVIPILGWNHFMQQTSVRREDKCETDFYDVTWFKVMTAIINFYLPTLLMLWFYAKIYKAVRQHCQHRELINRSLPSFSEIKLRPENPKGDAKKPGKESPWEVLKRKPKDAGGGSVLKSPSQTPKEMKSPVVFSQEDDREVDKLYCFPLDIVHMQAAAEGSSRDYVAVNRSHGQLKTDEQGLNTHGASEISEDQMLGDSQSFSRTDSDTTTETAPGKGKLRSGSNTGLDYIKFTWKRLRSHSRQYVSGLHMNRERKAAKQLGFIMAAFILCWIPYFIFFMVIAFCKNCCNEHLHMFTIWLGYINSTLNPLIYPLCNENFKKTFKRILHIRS

presynaptic D2 receptors = presynaptic D2 receptors (Homo sapiens, UniProt P14416)
Chain of presynaptic D2 receptors (P14416 whole entry): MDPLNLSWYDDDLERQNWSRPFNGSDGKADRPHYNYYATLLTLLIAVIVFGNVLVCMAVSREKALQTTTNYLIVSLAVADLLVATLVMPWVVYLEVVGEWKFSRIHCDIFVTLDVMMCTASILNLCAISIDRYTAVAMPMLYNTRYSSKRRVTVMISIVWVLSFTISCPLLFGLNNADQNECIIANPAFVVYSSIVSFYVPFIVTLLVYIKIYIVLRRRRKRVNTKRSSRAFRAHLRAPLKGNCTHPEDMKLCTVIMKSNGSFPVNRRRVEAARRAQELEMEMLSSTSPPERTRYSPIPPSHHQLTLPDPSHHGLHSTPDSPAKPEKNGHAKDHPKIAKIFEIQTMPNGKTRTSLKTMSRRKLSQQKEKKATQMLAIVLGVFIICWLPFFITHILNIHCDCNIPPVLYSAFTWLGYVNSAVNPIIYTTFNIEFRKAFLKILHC

[2] = system: adrenergic receptor sites
[3] = target: T2, serotonin 5-HT1A receptors; remark: listed apart in the source

CN(C)C(=O)NC1CCC(CCN2CCN(c3cccc(Cl)c3Cl)CC2)CC1.Cl (stereo not drawn) [trans-4-{2-[4-(2,3-dichlorophenyl)-piperazin-1-yl]-ethyl}-N,N-dimethylcarbamoyl-cyclohexylamine hydrochloride]
potency at 5-HT2C receptor site (5-HT2C): low potency | functional activity at serotonin 5-HT1A receptors [1]: partial agonist | potency at histamine H1 receptor site (histamine H1): low potency | activity on biosynthesis (and release) modulating presynaptic D2 receptors (presynaptic D2 receptors; depending on the functional status of the particular dopaminergic system): both (partial) agonist and antagonist activity | in vivo mode of action on the dopamine system (presynaptic D2 receptors; in vivo, preferential dopaminergic actions in the limbic regions): dopamine system stabilizer | potency at adrenergic receptor sites [2]: low potency | affinity for serotonin 5-HT1A receptors [3]: considerable affinity
